Measured values from PubChem BioAssay AID507.

System: Human MGC4172 (short-chain dehydrogenase/reductase, DHRS11)
Experiment: MGC4172 binders by thermal stabilisation, biophysical, DSF, SYPRO orange, recombinant human protein (AID 507)
Conditions: at 100 µM, protein 2 µM, buffer 10 mM HEPES, pH 7.5, NaCl 150 mM, NADPH 200 µM, stronger effect = higher value

Tm shift: 2.3 Celsius
Compound: CN(CCOc1ccc(CC2SC(=O)NC2=O)cc1)c1ccccn1 (stereo unspecified)
